Test results reported in US8623811B2, “Antimicrobial peptide, compositions, and methods of use” (Revance Therapeutics, Inc., priority 2007, dated 2014).

Columns and labels:
acne = experiment: Topical use in a patient with acne; assay type: in vivo, human; conditions: continued use of the formulation for two years
Description: A person with a two-year history of acne uses topical 5% peptide (SEQ ID NO:5) formulation twice a day for 4 weeks. The cream formulation is composed of the excipients cetyl alcohol, isopropyl myristate, stearyl alcohol, butylated hydroxytolune, polyoxyethylene stearyl ether, polyoxyethylene stearyl ether, edetate disodium, and purified water.

[1] = system: Tinea Pedis (Athlete's feet); experiment: Soak and topical use in a patient with Tinea Pedis; assay type: in vivo, human; conditions: 0.05% peptide formulation for 5 years
Description: The cream formulation is composed of the excipients cetyl alcohol, isopropyl myristate, stearyl alcohol, butylated hydrosyxtoluene, polyoxyethylene stearyl ether, polyoxyethylene stearyl ether, edetate disodium, and purified water.

N=C(N)NCCC[C@H](NC(=O)[C@H](CCCNC(=N)N)NC(=O)[C@H](CCCNC(=N)N)NC(=O)[C@H](CCC(N)=O)NC(=O)[C@H](CCCNC(=N)N)NC(=O)[C@H](CCCNC(=N)N)NC(=O)[C@H](CCCCN)NC(=O)[C@H](CCCCN)NC(=O)[C@H](CCCNC(=N)N)NC(=O)CNC(=O)[C@H](CCCCN)NC(=O)[C@H](CCCCN)NC(=O)[C@H](CCCCN)NC(=O)[C@H](CCCCN)NC(=O)[C@H](CCCCN)NC(=O)[C@H](CCCCN)NC(=O)[C@H](CCCCN)NC(=O)[C@H](CCCCN)NC(=O)[C@H](CCCCN)NC(=O)[C@H](CCCCN)NC(=O)[C@H](CCCCN)NC(=O)[C@H](CCCCN)NC(=O)[C@H](CCCCN)NC(=O)[C@H](CCCCN)NC(=O)[C@H](CCCCN)NC(=O)CNC(=O)[C@H](CCCNC(=N)N)NC(=O)[C@H](CCCNC(=N)N)NC(=O)[C@H](CCCNC(=N)N)NC(=O)[C@H](CCC(N)=O)NC(=O)[C@H](CCCNC(=N)N)NC(=O)[C@H](CCCNC(=N)N)NC(=O)[C@H](CCCCN)NC(=O)[C@H](CCCCN)NC(=O)[C@@H](N)CCCNC(=N)N)C(=O)O [SEQ ID NO:5, Arg-Lys-Lys-Arg-Arg-Gln-Arg-Arg-Arg-Gly-(Lys)15-Gly-Arg-Lys-Lys-Arg-Arg-Gln-Arg-Arg-Arg]
adverse events on continued use (acne): no new breakouts or adverse events are observed
adverse event on continued use [1]: no further breakout or adverse event
